Test results: article PMC6681416, “Novel Derivatives of Deoxycholic Acid Bearing Linear Aliphatic Diamine and Aminoalcohol Moieties and their Cyclic Analogs at the C3 Position: Synthesis and Evaluation of Their In Vitro Antitumor Potential” (Molecules, 2019)
Like-named read-outs stand apart in the source and are kept apart here.

Columns and labels:
KB-3-1 cells [1] = test system: KB-3-1 cells; set-up: method as in PMID 28688958, PMID 26037611, PMID 28887170; details: MTT, 24 h; values marked by asterisk; ref [21],[22],[23]; read-out: IC50 KB3-1 (cervix); cited from earlier work
HuTu-80 cells [2] = experiment: cells; format: cell-based; details: ratio IC50 hFF3 / IC50 HuTu-80
Description: (§1) According to our previous data and data published by other research groups, chemical transformations of bile acids can greatly improve their antitumor potential. Thus, as the first step of evaluation of the biological activities of our novel DCA derivatives we assessed their effects on tumor cell viability. The cytotoxicity of the compounds was investigated with respect to a panel of cultured cell lines, including human duodenal HuTu-80, hepatocellular HepG2, cervical KB-3-1 and lung A549 carcinomas as well as murine macrophage RAW264.7 and non-transformed human fibroblasts hFF3 by MTT assay.
(§2) Human duodenal carcinoma HuTu-80 cells, human hepatocellular carcinoma HepG2 cells, human cervical carcinoma KB-3-1 cells, human lung carcinoma A549 cells were obtained from the Russian Cell Culture Collection (Institute of Cytology, RAS, St. Petersburg, Russia). Non-transformed human fibroblasts hFF3 were kindly provided by Dr. Olga Koval (Institute of Chemical Biology and Fundamental Medicine, SB RAS, Novosibirsk, Russia). RAW264.7 macrophages were kindly provided by Prof. Dr. Dmitry Kuprash (Engelhardt Institute of Molecular Biology, RAS, Moscow, Russia). The cells were cultured in DMEM (Sigma-Aldrich Inc., St. Louis, MO, USA) supplemented with 10% (v/v) heat-inactivated fetal bovine serum (FBS) (BioloT, St. Petersburg, Russia), 100 U/mL penicillin (ICN Biomedicals Inc., Costa Mesa, CA, USA), 100 µg/mL streptomycin and 0.25 µg/mL amphotericin; additionally, in the case of RAW264.7 cells, concentration of glucose in the medium was increased up to 4.5 mg/mL. The cells were incubated at 37 °C in 5% CO2 and 95% air (hereafter referred to as standard conditions). DCA derivatives were dissolved in DMSO to yield stock solutions of 10 mmol/L and stored at −20 °C prior to use.
(§3) Cells were seeded in triplicate in 96-well plates at a density of 5 × 10^3 (HuTu-80, HepG2, KB-3-1, hFF3), 10^4 (A549) or 5 × 10^4 (RAW264.7) cells per well. Cells were incubated under standard conditions for 24 h and then they were treated with varying doses of investigated derivatives for subsequent 24 h. Then 10 µL of MTT solution (5 mg/mL) were added to each wells and cells were incubated for an additional 2 h under standard conditions. The crystals of formazan forming within live cells were solubilized with DMSO and the absorbance was measured in a Multiscan RC plate reader (Thermo LabSystems, Helsinki, Finland) at a test and reference wavelengths of 570 nm and 620 nm, respectively. […] To perform SAR analysis, hierarchical clustering of compounds based on their IC50 values was fulfilled with Euclidean distance by using the Morpheus tool (https://software.broadinstitute.org/morpheus/), a platform designed for visualization and analysis of data in a matrix format. Heatmap, containing compounds’ SI values, were constructed by using the Excel 2010 software (Microsoft, Redmond, WA, USA). In order to reveal whether ROS participate in the induction of cell death by compound 9, HuTu-80 cells cultured in 96-well plate were pretreated by NAC at 2 mM for 1 h. Thereafter, the medium was replaced by fresh medium with compound 9 at 8 µM and the cells were incubated with subsequent 24 h under standard conditions. After this time period, the curves of cytotoxicity of compound 9 in the presence or absence of NAC were compared.

HepG2 cells [3] = test system: HepG2 cells; set-up: method as in PMID 28688958, PMID 26037611, PMID 28887170; details: MTT, 24 h; values marked by asterisk; ref [21],[22],[23]; read-out: IC50 HepG2 (liver); cited from earlier work
[4] = test system: NO synthesis by IFNγ-activated RAW264.7 cells; experiment: Inhibition of NO production by stimulated macrophages (Griess); format: cell-based, murine; details: Mus musculus, read-out: IC50NO
Method: RAW264.7 cells were seeded in triplicate in 96-well plates at a density of 5 × 10^4 cells/well and incubated under standard conditions for 24 h. The cells were treated with 20 ng/mL of murine recombinant IFNγ (GIBCO, Gaithersburg, MD, USA), with or without (control) compounds at various concentrations for 24 h. The level of NO production was evaluated by determining the nitrite concentration in culture medium with a Griess Reagent System (Promega, Madison, WI, USA). The IC50^NO value was calculated as the derivative concentration required to decrease NO production to 50% of the non-treated control.

HuTu-80 cells [5] = test system: HuTu-80 cells; set-up: method as in PMID 28688958, PMID 26037611, PMID 28887170; details: MTT, 24 h; values marked by asterisk; ref [21],[22],[23]; read-out: IC50 HuTu-80 (duodenum); cited from earlier work
[6] = test system: panel of cultured cell lines (HuTu-80, HepG2, KB-3-1, A549, RAW264.7, hFF3); set-up: method as in PMID 28688958, PMID 26037611, PMID 28887170; details: MTT, 24 h; summary of Table 1 values marked by asterisk; ref [21],[22],[23]; read-out: IC50, range or lowest value over tested cell lines; cited from earlier work
RAW264.7 macrophages = experiment: MTT cytotoxicity assay, RAW264.7; format: cell-based, murine; details: for IC50: Mus musculus, RAW264.7, MTT, 24 h, read-out: IC50 RAW264.7 (macrophage); for Selectivity index RAW264: ratio IC50 hFF3 / IC50 RAW264.7
Description: as §1, §2, §3

[7] = test system: non-transformed human fibroblasts hFF3; set-up: method as in PMID 28688958, PMID 26037611, PMID 28887170; details: MTT, 24 h; values marked by asterisk; ref [21],[22],[23]; read-out: IC50 hFF3 (fibroblast); cited from earlier work
HepG2 cells [8] = experiment: MTT cytotoxicity assay, HepG2; format: cell-based, human; details: ratio IC50 hFF3 / IC50 HepG2
Description: as §1, §2, §3

KB-3-1 cells [9] = experiment: MTT cytotoxicity assay, KB-3-1; format: cell-based, human; details: ratio IC50 hFF3 / IC50 KB-3-1
Description: as §1, §2, §3

A549 cells [10] = test system: A549 cells; set-up: method as in PMID 28688958, PMID 26037611, PMID 28887170; details: MTT, 24 h; values marked by asterisk; ref [21],[22],[23]; read-out: IC50 A549 (lung); cited from earlier work
A549 cells [11] = experiment: MTT cytotoxicity assay, A549; format: cell-based, human; details: ratio IC50 hFF3 / IC50 A549
Description: as §1, §2, §3

SMILES	IC50 (KB-3-1 cells [1])	Selectivity index HuTu-80 (HuTu-80 cells [2])	IC50 (HepG2 cells [3])	IC50 ([4]; RAW264.7, 24 h)	IC50 (HuTu-80 cells [5])	IC50 [6]	IC50 (RAW264.7 macrophages)	Selectivity index RAW264 (RAW264.7 macrophages)	IC50 [7]	Selectivity index HepG-2 (HepG2 cells [8])	Selectivity index KB-3-1 (KB-3-1 cells [9])	IC50 (A549 cells [10])	Selectivity index A549 (A549 cells [11])	IC50 ([4]; 50% reduction in NO synthesis by IFNγ-activated RAW264.7 cells, 24 h)
COC(=O)CC[C@@H](C)[C@H]1CCC2[C@@H]3CC[C@@H]4C[C@@]5(CC[C@]4(C)C3CC(=O)[C@@]21C)CO5 (stereo partly drawn) [Compound 1, methyl 3β-oxirane-12-oxo-5β-cholan-24-oate]	27.9 ± 2.5 µM	1.6	43.5 ± 1.9 µM	16.4 ± 0.9 µM	17 ± 1.6 µM	≥ 17 µM	> 100 µM	<0.5	53.9 ± 3.3 µM	–	–	–	–	–
COC(=O)CC[C@@H](C)[C@H]1CCC2[C@@H]3CC[C@@H]4C[C@](O)(CNCCN(C)C)CC[C@]4(C)C3CC(=O)[C@@]21C (some centres unmarked) [Compound 2]	26.2 ± 0.8 µM	3.6	8 ± 0.9 µM	> 10 µM	7.1 ± 0.6 µM	7.1 to 36 µM	21.7 ± 0.87 µM	1.2	25.4 ± 2.2 µM	3.2	1	36 ± 0.7 µM	0.7	–
COC(=O)CC[C@@H](C)[C@H]1CCC2[C@@H]3CC[C@@H]4C[C@](O)(CNCCCN(C)C)CC[C@]4(C)C3CC(=O)[C@@]21C (some centres unmarked) [Compound 3]	5.9 ± 0.5 µM	2.2	4 ± 0.2 µM	> 10 µM	3 ± 0.4 µM	3 to 6.8 µM	6.7 ± 0.4 µM	1	6.5 ± 0.5 µM	1.6	1.1	6.8 ± 0.1 µM	1	–
COC(=O)CC[C@@H](C)[C@H]1CCC2[C@@H]3CC[C@@H]4C[C@](O)(CN5CCN(C)CC5)CC[C@]4(C)C3CC(=O)[C@@]21C (some centres unmarked) [Compound 4]	23.5 ± 1.7 µM	6.9	3.6 ± 0.7 µM	> 10 µM	4.7 ± 0.2 µM	–	20.4 ± 0.4 µM	1.6	32.5 ± 1.4 µM	9	1.4	21.6 ± 2.5 µM	1.5	–
CCN(CC)CCNC[C@]1(O)CC[C@]2(C)C3CC(=O)[C@@]4(C)C(CC[C@@H]4[C@H](C)CCC(=O)OC)[C@@H]3CC[C@@H]2C1 (some centres unmarked) [Compound 5]	21.6 ± 3.4 µM	2.2	4.3 ± 0.3 µM	> 10 µM	3.3 ± 0.1 µM	3.3 to 25.5 µM	20.9 ± 2.1 µM	0.4	7.4 ± 1 µM	1.7	0.3	25.5 ± 0.8 µM	0.3	–
CCN1CCN(C[C@]2(O)CC[C@]3(C)C4CC(=O)[C@@]5(C)C(CC[C@@H]5[C@H](C)CCC(=O)OC)[C@@H]4CC[C@@H]3C2)CC1 (some centres unmarked) [Compound 7]	28.6 ± 0.5 µM	2	3.8 ± 0.3 µM	> 10 µM	8.3 ± 1.2 µM	–	37.8 ± 1.7 µM	0.5	17.4 ± 1.6 µM	4.6	0.6	23.5 ± 3 µM	0.7	–
COC(=O)CC[C@@H](C)[C@H]1CC[C@H]2[C@@H]3CC[C@@H]4C[C@H](O)CC[C@]4(C)[C@H]3CC(=O)[C@]12C [Compound 11, methyl 3α-hydroxy-12-oxo-5β-cholan-24-oate]	> 100 µM	–	25.7 ± 3.6 µM	50.9 ± 5.9 µM	> 100 µM	≥ 25.7 µM	> 100 µM	–	> 100 µM	>3.9	–	–	1	–
C[C@H](CCC(=O)O)[C@H]1CC[C@H]2[C@@H]3CC[C@@H]4C[C@H](O)CC[C@]4(C)[C@H]3C[C@H](O)[C@]12C [DCA, deoxycholic acid]	> 100 µM	–	> 100 µM	–	82.9 ± 1.9 µM	≥ 82.9 µM	> 100 µM	–	> 100 µM	–	–	–	1	83.6 ± 1.6 µM
